Test results: publication PMC2077808 (2007)
Each block holds one compound with its values, some of them ahead of it.

What was measured:
[1] = system: ADP-ASAP (DNA:RNA, aptamer, RNA aptamer with all-DNA 30-nt antisense element; single rA in DNA substrate flanked by fluorescein-dT and DABCYL-dT) GGAGACGAGGGGTCGAACCGTAGCCCGAAGGTAGGAAGAGTGCCCCGGACAAUCAGACACGGUCUCCACTCTTCCTAGCTATGGTTCGATCAAGA; test: fluorescence enhancement kinetics, MgZ DNAzyme cleavage sensor; conditions: 20 mM MgCl2
[2] = system: ATP-ASAP (DNA, aptamer, single rA at cleavage site in DNA substrate, flanked by fluorescein-dT and DABCYL-dT) CTTCGGAGGAGAACCATAGTCGGGGGAGAAGATGTGTCCGTGCTATGGTTCGA; test: initial rate of fluorescence enhancement, MgZ DNAzyme cleavage sensor; conditions: 20 mM MgCl2, 50 mM HEPES pH 7.0, 0.001% Tween-20, room temperature, 5 nM ASAP, 50 nM MgZ
[3] = system: ADP-ASAP (DNA:RNA, aptamer, RNA aptamer with all-DNA 30-nt antisense element; single rA in DNA substrate flanked by fluorescein-dT and DABCYL-dT) GGAGACGAGGGGTCGAACCGTAGCCCGAAGGTAGGAAGAGTGCCCCGGACAAUCAGACACGGUCUCCACTCTTCCTAGCTATGGTTCGATCAAGA; test: as above; conditions: 20 mM MgCl2, 50 mM HEPES pH 7.0, 0.001% Tween-20, room temperature, 5 nM ASAP, 1 µM MgZ
[4] = system: ATP-ASAP (DNA, aptamer, single rA at cleavage site in DNA substrate, flanked by fluorescein-dT and DABCYL-dT) CTTCGGAGGAGAACCATAGTCGGGGGAGAAGATGTGTCCGTGCTATGGTTCGA; test: fluorescence enhancement kinetics, MgZ DNAzyme cleavage sensor; conditions: 20 mM MgCl2; 50 mM HEPES pH 7.0, 0.001% Tween-20, room temperature; highest tested 1 mM
[5] = 50 mM HEPES pH 7.0, 0.001% Tween-20, room temperature, highest tested 1 mM

binding [1, 5]: no
SMILES: Nc1ncnc2c1ncn2[C@@H]1O[C@H](CO)[C@@H](O)[C@H]1O

binding [1, 5]: no
SMILES: Nc1ncnc2c1ncn2[C@@H]1O[C@H](COP(=O)(O)O)[C@@H](O)[C@H]1O

binding ([1]; 50 mM HEPES pH 7.0, room temperature, no signal at 200 µM, signal at 300-1000 µM): weak | apparent K d [2]: 456 ± 47 µM
SMILES: Nc1ncnc2c1ncn2[C@@H]1O[C@H](COP(=O)(O)OP(=O)(O)OP(=O)(O)O)[C@@H](O)[C@H]1O

apparent K d [3]: 35 ± 3 µM
SMILES: Nc1ncnc2c1ncn2[C@@H]1O[C@H](COP(=O)(O)OP(=O)(O)O)[C@@H](O)[C@H]1O

binding [4]: no
SMILES: Nc1nc2c(ncn2[C@@H]2O[C@H](COP(=O)(O)OP(=O)(O)OP(=O)(O)O)[C@@H](O)[C@H]2O)c(=O)[nH]1
